Results published in ChEMBL document CHEMBL4649994.
Values joined by “and” are separate entries in the source; they are usually repeats but may differ in a detail not shown here. Equal entries are not always repeated.

What was measured:
Conditions in all cases: Compound concentration 10.0 uM, Protein concentration 2.0 uM
Peregrin (Homo sapiens) [1] = molecular target: Peregrin (Homo sapiens) (UniProt P55201)
[2] = molecular target: Bromodomain-containing protein 1 (Homo sapiens) (UniProt O95696)
[3] = molecular target: Protein polybromo-1 (Homo sapiens) (UniProt Q86U86); test: Thermal Shift Assay. Domain start/stop: R487-D598
Chain of Protein polybromo-1 (Homo sapiens) (Q86U86 whole entry, the tested form may be a part): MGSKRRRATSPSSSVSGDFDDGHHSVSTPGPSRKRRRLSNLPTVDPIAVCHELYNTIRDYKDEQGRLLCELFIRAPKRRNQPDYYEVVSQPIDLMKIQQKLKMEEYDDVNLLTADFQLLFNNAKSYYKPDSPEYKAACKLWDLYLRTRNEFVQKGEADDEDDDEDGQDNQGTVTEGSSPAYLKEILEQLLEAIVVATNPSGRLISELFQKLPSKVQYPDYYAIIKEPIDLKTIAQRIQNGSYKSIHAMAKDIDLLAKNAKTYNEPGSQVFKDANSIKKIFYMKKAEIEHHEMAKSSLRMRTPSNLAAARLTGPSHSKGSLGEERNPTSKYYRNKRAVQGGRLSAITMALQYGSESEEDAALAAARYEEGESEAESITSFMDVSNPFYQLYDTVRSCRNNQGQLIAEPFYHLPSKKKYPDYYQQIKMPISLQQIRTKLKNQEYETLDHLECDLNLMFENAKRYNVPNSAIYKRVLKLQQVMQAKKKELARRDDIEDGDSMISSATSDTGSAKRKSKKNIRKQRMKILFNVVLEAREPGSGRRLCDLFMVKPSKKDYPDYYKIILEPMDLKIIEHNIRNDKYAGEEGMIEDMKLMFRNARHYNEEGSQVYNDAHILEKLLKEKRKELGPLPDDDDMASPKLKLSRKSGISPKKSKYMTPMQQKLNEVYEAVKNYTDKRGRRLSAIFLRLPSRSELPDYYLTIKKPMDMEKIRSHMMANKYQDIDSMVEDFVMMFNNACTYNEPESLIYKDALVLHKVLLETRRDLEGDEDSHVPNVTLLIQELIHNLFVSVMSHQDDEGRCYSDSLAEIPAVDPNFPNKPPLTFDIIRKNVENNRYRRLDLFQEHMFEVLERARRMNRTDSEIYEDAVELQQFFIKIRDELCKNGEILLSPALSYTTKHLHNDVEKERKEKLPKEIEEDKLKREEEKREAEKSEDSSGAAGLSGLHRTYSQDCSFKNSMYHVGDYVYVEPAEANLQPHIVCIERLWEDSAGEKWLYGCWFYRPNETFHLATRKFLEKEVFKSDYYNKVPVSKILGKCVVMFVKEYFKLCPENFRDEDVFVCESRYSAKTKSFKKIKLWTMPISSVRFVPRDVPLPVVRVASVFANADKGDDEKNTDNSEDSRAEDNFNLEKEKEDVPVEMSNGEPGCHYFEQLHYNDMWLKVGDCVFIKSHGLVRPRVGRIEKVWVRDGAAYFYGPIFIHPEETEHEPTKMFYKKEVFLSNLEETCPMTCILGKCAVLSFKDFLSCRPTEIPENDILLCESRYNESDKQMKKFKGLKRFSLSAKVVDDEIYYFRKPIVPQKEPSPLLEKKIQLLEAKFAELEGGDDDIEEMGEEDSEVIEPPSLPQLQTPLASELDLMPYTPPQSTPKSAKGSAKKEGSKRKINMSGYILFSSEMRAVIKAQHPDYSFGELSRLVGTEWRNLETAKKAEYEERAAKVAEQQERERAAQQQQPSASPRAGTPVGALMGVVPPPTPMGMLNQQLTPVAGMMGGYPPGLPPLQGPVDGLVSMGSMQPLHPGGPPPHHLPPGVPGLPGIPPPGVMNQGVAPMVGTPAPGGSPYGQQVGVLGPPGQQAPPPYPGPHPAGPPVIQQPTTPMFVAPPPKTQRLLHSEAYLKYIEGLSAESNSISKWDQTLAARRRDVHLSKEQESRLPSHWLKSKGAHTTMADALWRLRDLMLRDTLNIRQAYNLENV

[4] = molecular target: PH-interacting protein (Homo sapiens) (UniProt Q8WWQ0)
[5] = molecular target: Nucleosome-remodeling factor subunit BPTF (Homo sapiens) (UniProt Q12830)
[6] = molecular target: Transcription initiation factor TFIID subunit 1 (Homo sapiens) (UniProt P21675)
[7] = molecular target: Tripartite motif-containing protein 66 (Homo sapiens) (UniProt O15016); test: Thermal Shift Assay. Domain start/stop: M1091-S1218
[8] = molecular target: Histone acetyltransferase KAT2A (Homo sapiens) (UniProt Q92830)
[9] = molecular target: SWI/SNF-related matrix-associated actin-dependent regulator of chromatin subfamily A member 2 (Homo sapiens) (UniProt P51531)
[10] = molecular target: Protein polybromo-1 (Homo sapiens) (UniProt Q86U86); test: Thermal Shift Assay. Domain start/stop: H23-D159
[11] = molecular target: Bromodomain adjacent to zinc finger domain protein 1A (Homo sapiens) (UniProt Q9NRL2)
[12] = molecular target: SWI/SNF-related matrix-associated actin-dependent regulator of chromatin subfamily A member 4 (Homo sapiens) (UniProt P51532)
[13] = molecular target: Bromodomain-containing protein 9 (Homo sapiens) (UniProt Q9H8M2)
Chain of Bromodomain-containing protein 9 (Homo sapiens) (Q9H8M2 whole entry): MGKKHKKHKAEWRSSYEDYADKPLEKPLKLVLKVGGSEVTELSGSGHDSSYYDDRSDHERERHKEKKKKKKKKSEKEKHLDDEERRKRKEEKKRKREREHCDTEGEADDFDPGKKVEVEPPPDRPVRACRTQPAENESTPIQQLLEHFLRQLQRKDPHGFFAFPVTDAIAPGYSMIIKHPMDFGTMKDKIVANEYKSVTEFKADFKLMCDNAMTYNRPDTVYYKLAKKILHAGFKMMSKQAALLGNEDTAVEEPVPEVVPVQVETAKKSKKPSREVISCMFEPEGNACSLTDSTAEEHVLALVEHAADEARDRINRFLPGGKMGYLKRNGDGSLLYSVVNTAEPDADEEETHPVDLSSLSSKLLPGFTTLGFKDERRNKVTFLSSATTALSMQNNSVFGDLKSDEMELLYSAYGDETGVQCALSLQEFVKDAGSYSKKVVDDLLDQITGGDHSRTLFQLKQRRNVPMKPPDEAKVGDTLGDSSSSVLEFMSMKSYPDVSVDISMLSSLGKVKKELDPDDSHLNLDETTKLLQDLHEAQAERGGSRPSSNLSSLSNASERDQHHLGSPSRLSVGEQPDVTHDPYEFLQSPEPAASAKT

[14] = molecular target: Bromodomain-containing protein 2 (Homo sapiens) (UniProt P25440)
Chain of Bromodomain-containing protein 2 (Homo sapiens) (P25440 whole entry, looked up, the tested form may be a part): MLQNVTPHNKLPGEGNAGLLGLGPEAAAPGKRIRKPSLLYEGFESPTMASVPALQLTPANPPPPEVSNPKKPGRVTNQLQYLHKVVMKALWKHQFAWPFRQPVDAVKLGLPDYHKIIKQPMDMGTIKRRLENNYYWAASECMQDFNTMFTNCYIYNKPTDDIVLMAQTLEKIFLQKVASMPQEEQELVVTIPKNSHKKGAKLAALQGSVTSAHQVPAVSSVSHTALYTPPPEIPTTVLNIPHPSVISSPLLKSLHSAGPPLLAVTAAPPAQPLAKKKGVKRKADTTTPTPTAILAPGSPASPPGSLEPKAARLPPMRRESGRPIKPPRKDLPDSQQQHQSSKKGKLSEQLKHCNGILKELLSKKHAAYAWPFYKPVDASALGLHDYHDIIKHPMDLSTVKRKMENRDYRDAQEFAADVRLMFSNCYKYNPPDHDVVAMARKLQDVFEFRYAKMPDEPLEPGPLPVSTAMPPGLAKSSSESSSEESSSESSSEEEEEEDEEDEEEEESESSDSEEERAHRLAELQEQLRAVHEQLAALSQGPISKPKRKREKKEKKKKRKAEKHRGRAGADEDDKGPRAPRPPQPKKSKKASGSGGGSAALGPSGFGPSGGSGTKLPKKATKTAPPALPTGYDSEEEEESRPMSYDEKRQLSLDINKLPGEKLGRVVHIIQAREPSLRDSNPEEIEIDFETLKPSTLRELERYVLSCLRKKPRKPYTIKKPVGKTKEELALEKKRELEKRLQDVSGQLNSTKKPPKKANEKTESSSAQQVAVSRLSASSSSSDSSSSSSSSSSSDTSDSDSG

[15] = molecular target: Bromodomain adjacent to zinc finger domain protein 2A (Homo sapiens) (UniProt Q9UIF9)
[16] = molecular target: Protein polybromo-1 (Homo sapiens) (UniProt Q86U86)
[17] = molecular target: Transcription initiation factor TFIID subunit 1 (Homo sapiens) (UniProt P21675); remark: listed apart in the source
[18] = molecular target: Bromodomain and PHD finger-containing protein 3 (Homo sapiens) (UniProt Q9ULD4)
[19] = molecular target: Bromodomain-containing protein 2 (Homo sapiens) (UniProt P25440); remark: listed apart in the source
[20] = molecular target: Nuclear body protein SP140-like protein (Homo sapiens) (UniProt Q9H930)
[21] = molecular target: Bromodomain-containing protein 3 (Homo sapiens) (UniProt Q15059); test: Thermal Shift Assay. Domain start/stop: P24-E144
Chain of Bromodomain-containing protein 3 (Homo sapiens) (Q15059 2-726 limits assumed): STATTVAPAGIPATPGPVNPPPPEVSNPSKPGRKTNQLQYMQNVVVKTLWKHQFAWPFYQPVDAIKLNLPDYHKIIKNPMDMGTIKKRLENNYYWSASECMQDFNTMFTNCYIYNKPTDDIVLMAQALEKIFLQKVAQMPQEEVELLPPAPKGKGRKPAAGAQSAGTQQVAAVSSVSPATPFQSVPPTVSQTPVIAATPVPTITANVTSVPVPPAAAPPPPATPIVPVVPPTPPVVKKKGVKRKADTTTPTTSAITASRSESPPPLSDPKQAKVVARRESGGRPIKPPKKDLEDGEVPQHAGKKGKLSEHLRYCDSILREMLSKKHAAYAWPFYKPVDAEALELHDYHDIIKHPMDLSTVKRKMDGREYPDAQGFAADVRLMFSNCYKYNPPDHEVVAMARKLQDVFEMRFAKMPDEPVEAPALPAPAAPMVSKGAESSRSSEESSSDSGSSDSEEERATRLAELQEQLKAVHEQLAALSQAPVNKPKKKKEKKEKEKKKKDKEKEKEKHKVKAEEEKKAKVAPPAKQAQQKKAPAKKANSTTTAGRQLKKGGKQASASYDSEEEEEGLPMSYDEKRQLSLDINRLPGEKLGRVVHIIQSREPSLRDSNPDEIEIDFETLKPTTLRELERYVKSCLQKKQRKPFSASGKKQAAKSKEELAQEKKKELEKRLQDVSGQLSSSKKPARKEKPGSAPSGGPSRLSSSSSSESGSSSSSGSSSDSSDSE

[22] = molecular target: Histone acetyltransferase KAT2B (Homo sapiens) (UniProt Q92831)
[23] = molecular target: ATPase family AAA domain-containing protein 2B (Homo sapiens) (UniProt Q9ULI0)
Peregrin (Homo sapiens) [24] = molecular target: Peregrin (Homo sapiens) (UniProt P55201); remark: listed apart in the source
[25] = molecular target: Histone acetyltransferase p300 (Homo sapiens) (UniProt Q09472)
[26] = molecular target: ATPase family AAA domain-containing protein 2 (Homo sapiens) (UniProt Q6PL18)
[27] = molecular target: Nuclear body protein SP140 (Homo sapiens) (UniProt Q13342)
[28] = molecular target: Chromatin remodeling regulator CECR2 (Homo sapiens) (UniProt Q9BXF3)
[29] = molecular target: Protein polybromo-1 (Homo sapiens) (UniProt Q86U86); remark: listed apart in the source
[30] = molecular target: Transcription initiation factor TFIID subunit 1-like (Homo sapiens) (UniProt Q8IZX4)
[31] = molecular target: Bromodomain-containing protein 3 (Homo sapiens) (UniProt Q15059)
[32] = molecular target: Transcription initiation factor TFIID subunit 1-like (Homo sapiens) (UniProt Q8IZX4); remark: listed apart in the source
[33] = molecular target: Transcription intermediary factor 1-alpha (Homo sapiens) (UniProt O15164)
[34] = molecular target: Protein polybromo-1 (Homo sapiens) (UniProt Q86U86); remark: listed apart in the source
[35] = molecular target: CREB-binding protein (Homo sapiens) (UniProt Q92793)
[36] = molecular target: Protein polybromo-1 (Homo sapiens) (UniProt Q86U86); remark: listed apart in the source
[37] = molecular target: Histone-lysine N-methyltransferase ASH1L (Homo sapiens) (UniProt Q9NR48)
[38] = molecular target: Bromodomain adjacent to zinc finger domain protein 2B (Homo sapiens) (UniProt Q9UIF8)
[39] = molecular target: Bromodomain testis-specific protein (Homo sapiens) (UniProt Q58F21)
[40] = molecular target: Bromodomain and WD repeat-containing protein 3 (Homo sapiens) (UniProt Q6RI45)
[41] = molecular target: Transcription intermediary factor 1-beta (Homo sapiens) (UniProt Q13263)

Chain of Peregrin (Homo sapiens) (P55201 whole entry): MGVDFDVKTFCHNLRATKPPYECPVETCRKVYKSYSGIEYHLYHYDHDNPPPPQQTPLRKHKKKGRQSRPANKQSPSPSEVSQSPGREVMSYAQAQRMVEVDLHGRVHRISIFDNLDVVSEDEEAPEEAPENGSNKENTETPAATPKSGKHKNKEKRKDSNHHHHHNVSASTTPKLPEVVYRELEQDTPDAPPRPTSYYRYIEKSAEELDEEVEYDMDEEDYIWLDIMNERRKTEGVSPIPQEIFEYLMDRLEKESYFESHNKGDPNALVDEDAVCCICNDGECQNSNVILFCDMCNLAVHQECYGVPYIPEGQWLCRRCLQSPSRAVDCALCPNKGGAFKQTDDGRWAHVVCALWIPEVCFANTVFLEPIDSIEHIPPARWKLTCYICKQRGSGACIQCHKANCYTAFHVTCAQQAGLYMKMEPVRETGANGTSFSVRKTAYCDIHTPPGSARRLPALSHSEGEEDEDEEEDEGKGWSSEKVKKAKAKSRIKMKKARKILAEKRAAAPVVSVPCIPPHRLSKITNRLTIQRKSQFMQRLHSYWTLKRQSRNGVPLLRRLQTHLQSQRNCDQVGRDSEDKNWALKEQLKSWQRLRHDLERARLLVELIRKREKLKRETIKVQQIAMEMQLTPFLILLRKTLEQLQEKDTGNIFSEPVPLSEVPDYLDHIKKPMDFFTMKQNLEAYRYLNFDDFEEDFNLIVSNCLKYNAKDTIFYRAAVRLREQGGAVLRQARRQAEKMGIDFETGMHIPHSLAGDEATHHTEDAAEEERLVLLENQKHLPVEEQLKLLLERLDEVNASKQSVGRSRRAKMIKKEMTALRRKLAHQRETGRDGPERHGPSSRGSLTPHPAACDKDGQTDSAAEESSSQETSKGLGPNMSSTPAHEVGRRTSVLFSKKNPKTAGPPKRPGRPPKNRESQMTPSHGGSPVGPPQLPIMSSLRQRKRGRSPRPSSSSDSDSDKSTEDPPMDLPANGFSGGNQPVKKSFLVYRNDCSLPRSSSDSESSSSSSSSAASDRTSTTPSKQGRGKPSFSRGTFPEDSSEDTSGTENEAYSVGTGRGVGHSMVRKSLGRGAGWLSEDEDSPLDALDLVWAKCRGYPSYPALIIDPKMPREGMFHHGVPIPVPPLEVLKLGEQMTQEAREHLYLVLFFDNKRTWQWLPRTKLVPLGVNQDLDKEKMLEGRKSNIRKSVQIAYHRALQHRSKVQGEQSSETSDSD

ΔTm (Peregrin (Homo sapiens) [1]): 0.68 °C
ΔTm [2]: 1.19 °C and 0.62 °C
ΔTm [3]: 1.03 °C
ΔTm [4]: 1.07 °C
ΔTm [5]: 0.44 °C
ΔTm [6]: -0.08 °C
ΔTm [7]: 0.42 °C
ΔTm [8]: 0.43 °C
ΔTm [9]: 0.49 °C
ΔTm [10]: 0.75 °C
ΔTm [11]: 1.62 °C
ΔTm [12]: 0.51 °C
ΔTm [13]: 1.96 °C
ΔTm [14]: 4.61 °C and 3.1 °C
ΔTm [15]: 1.02 °C
ΔTm [16]: 0.99 °C
ΔTm [17]: 0.62 °C
ΔTm [18]: 1.72 °C
ΔTm [19]: 5.32 °C
ΔTm [20]: 0.12 °C
ΔTm [21]: 3.99 °C and 5.24 °C
ΔTm [22]: -0.1 °C and 0.81 °C
ΔTm [23]: 0.1 °C
ΔTm (Peregrin (Homo sapiens) [24]): 2.42 °C
ΔTm [25]: 2.71 °C
ΔTm [26]: 0.71 °C
ΔTm [27]: 0.1 °C
ΔTm [28]: -0.22 °C
ΔTm [29]: 0.62 °C
ΔTm [30]: 0.78 °C
ΔTm [31]: 4.59 °C and 5.45 °C
ΔTm [32]: 0.52 °C
ΔTm [33]: 0.57 °C
ΔTm [34]: 0.83 °C and -0.18 °C
ΔTm [35]: 2.09 °C and 2.66 °C
ΔTm [36]: -0.18 °C
ΔTm [37]: -0.34 °C
ΔTm [38]: 0.66 °C and 0.25 °C
ΔTm [39]: 2.08 °C
ΔTm [40]: 0.16 °C
ΔTm [41]: 0.29 °C
Structure (SMILES): COc1ccccc1S(=O)(=O)Nc1ccc2c(c1)CN(C)C(=O)N2
